Patent publication US20170150719A1, “FUNGICIDAL PYRAZOLES AND THEIR MIXTURES” (E I DU PONT DE NEMOURS AND COMPANY, priority 2010, published 2017)

Columns and labels:
[1] = test system: Puccinia recondita f. sp. tritici; assay: Test G: wheat leaf rust, spray after inoculation (curative) on wheat seedlings, visual disease rating; format: in vivo; conditions: 100 = 100% disease control
Description: (§1) A hyphen (-) indicates no test results.

[2] = test system: Blumeria graminis f. sp. tritici; assay: Test I: wheat powdery mildew, preventive spray on wheat seedlings, visual disease rating; conditions: 100 = 100% disease control, 0 = no disease control relative to the controls
Description: (§2) General protocol for preparing test suspensions for Tests A-I: the test compounds were first dissolved in acetone in an amount equal to 3% of the final volume and then suspended at the desired concentration (in ppm) in acetone and purified water (50/50 mix by volume) containing 250 ppm of the surfactant Trem® 014 (polyhydric alcohol esters). The resulting test suspensions were then used in Tests A-I. Each test was conducted in triplicate, and the results were averaged. Spraying a 200 ppm test suspension to the point of run-off on the test plants was the equivalent of a rate of about 800 g/ha. Unless otherwise indicated, the rating values indicate a 200 ppm test suspension was used. (An asterisk “*” next to the rating value indicates a 40 ppm test suspension was used.)
The test suspension was sprayed to the point of run-off on wheat seedlings. The following day the seedlings were inoculated with a spore dust of Blumeria graminis f. sp. tritici (also known as Erysiphe graminis f. sp. tritici, the causal agent of wheat powdery mildew) and incubated in a growth chamber at 20° C. for 8 days, after which time visual disease ratings were made.

[3] = test system: Puccinia recondita f. sp. tritici; assay: Test H: wheat leaf rust, preventive spray on wheat seedlings, visual disease rating; conditions: 100 = 100% disease control, 0 = no disease control
Alternaria solani = assay: Test B: tomato early blight, preventive spray on tomato seedlings, visual disease rating
Septoria nodorum = assay: Test E: Septoria glume blotch, preventive spray on wheat seedlings, visual disease rating; conditions: 100 = 100% disease control
Description: as §2
The test suspension was sprayed to the point of run-off on wheat seedlings. The following day the seedlings were inoculated with a spore suspension of Septoria nodorum (the causal agent of Septoria glume blotch) and incubated in a saturated atmosphere at 24° C. for 48 h, and then moved to a growth chamber at 20° C. for 9 days, after which time visual disease ratings were made.

Botrytis cinerea = assay: Test A: tomato Botrytis, preventive spray on tomato seedlings, visual disease rating; conditions: 100 = 100% disease control, 0 = no disease control relative to the controls
Septoria tritici [4] = assay: Test F: wheat leaf blotch, preventive spray on wheat seedlings, visual disease rating; format: in vivo; conditions: 100 = 100% disease control, 0 = no disease control relative to the controls
Description: as §1

[5] = Single oral dose pharmacokinetics in rats, plasma and fat by LC/MS (fat:plasma distribution); format: in vivo; conditions: single oral dose via gavage, compared to corresponding compounds wherein R^2 is other than H
Description: The pharmacokinetic properties of compounds of Formula 1 can be measured using a wide variety of assay protocols known in the science of pharmacology. In one illustrative method involving a single oral dose, three male and three female rats receive a single dose of a test substance via oral gavage. Approximately 0.25 mL of blood is collected via tail vein immediately prior to dosing, and then at 0.25, 0.5, 1, 2, 4, 8, 12, 24 h and every 24 h thereafter until sacrifice. At sacrifice, fat is also collected to determine the fat:plasma ratio at sacrifice. Blood is collected into tubes that contain ethylenediaminetetracetic acid (EDTA) and centrifuged at 2500×g in order to separate plasma from blood cells. The plasma is then extracted by protein precipitation using, for example, acetonitrile and a protein precipitation plate (e.g., Strata Impact Protein Precipitation Plate, part number CEO-7565 of Phenomenex, Torrance, Calif., U.S.A.) following directions provided for the plate. Alternatively, the plasma is extracted just with acetonitrile, vortexed (i.e. mixed using a vortex mixer), and centrifuged to pellet the proteins. After removal of the proteins, the plasma is analyzed for parent compound and/or metabolites by liquid chromatography-mass spectrometry (LC/MS). The fat is homogenized and extracted by an organic solvent such as acetonitrile. The extract is then analyzed for parent compound and/or metabolites by LC/MS. The plasma pharmacokinetic data is then analyzed using nonlinear modeling software (e.g., WinNonlin™ from Pharsight, Cary, N.C., U.S.A.) to determine half-life of the administered compound in plasma, the time after administration when the maximum plasma concentration is reached (Tmax), the maximum plasma concentration (Cmax) and the area under the plasma concentration curve (AUC). As analysis of fat requires rat sacrifice, fat data is obtained at single time points (i.e. the time of rat sacrifice). However, by using multiple rats sacrificed after different intervals from time of dosing, such parameters as Cmax for fat are determined.

Phytophthora infestans = assay: whole plant or invertebrate; format: in vivo; conditions: tomato late blight, 100 = 100% disease control
Septoria tritici [6] = assay: Tests N1 and N2: growth inhibition of Septoria tritici on solid medium in 96-well plates, absorbance at 600 nm, observed and Colby expected; format: cell-based; conditions: Zymoseptoria tritici
Description: Tests N1 and N2 involved evaluation of mixtures of Compound 81 with 2-[(3-bromo-8-methyl-6-quinolinyl)oxy]-N-(1,1-dimethyl-2-propyn-1-yl)-2-(methylthio)acetamide (Compound A1) and 2-[(3-bromo-6-quinolinyl)oxy]-N-(1,1-dimethylethyl)butanamide (Compound A2), respectively, for inhibiting the growth of Septoria tritici (the causal agent of wheat leaf blotch). The general protocol for preparing test compositions was as follows. Compound 81 (Tests N1 and N2), Compound A1 (Test N1) and Compound A2 (Test N2) were obtained as unformulated, technical-grade materials. Unformulated test compounds were first dissolved in DMSO at the appropriate concentration to provide the desired concentration (in μM) after mixing with the fungal growth medium in the wells of 96-well plates containing 200 μL fungal growth medium per well. The ranges of compound concentrations were chosen to span a range of inhibitory activity from 0 to near 100% to identify any synergistic action when Septoria tritici was treated with compounds added in combination. The DMSO solutions of the test compounds were added to the wells prior to addition of the fungal growth medium.
The fungal growth solid medium was prepared by forming an aqueous mixture containing dipotassium hydrogen phosphate (3.0 g/L), potassium dihydrogen phosphate (4.0 g/L), sodium chloride (0.5 g/L), ammonium chloride (1.0 g/L), magnesium sulfate heptahydrate ([…]) and calcium chloride dihydrate (0.01 g/L), also containing 1 mL/L of a trace element solution (manganese sulfate hydrate (0.1 mg/mL), zinc sulfate heptahydrate (0.2 mg/mL), copper(II) sulfate pentahydrate (0.2 mg/mL), iron(II) sulfate heptahydrate (0.2 mg/mL), sodium molybdate dihydrate (0.1 mg/mL), cobalt(II) sulfate heptahydrate (0.06 mg/mL), boric acid (0.08 mg/mL)), and supplemented with 50 μL/L of a biotin stock solution (0.1 mg/mL). The pH was adjusted to 6.8 with aqueous 1 M sodium carbonate solution. The mixture was further supplemented with 1 g/L of yeast extract, and GELRITE gellan gum (Kelco) (4 g/L) was added. Sufficient water was added to bring the volume to 90% of final volume (e.g., 900 mL volume for preparation of 1 L of fungal growth medium). The mixture was autoclaved. On cooling to 60° C., 100 mL/L of aqueous dextrose solution (10 g/L), 500 μL/L of aqueous ampicillin solution (100 mg/mL) and 500 μL/L of rifampicin solution (10 mg/mL in DMSO) were added to provide the final volume of fungal growth medium, which was then dispensed while still warm using a microliter pipette to the wells of the 96-well plates. The dispensed fungal growth medium in each well was agitated using the tip of the dispensing pipette to mix it with the DMSO solution containing the test compounds.
After the fungal growth medium in the wells had cooled to room temperature and solidified, the top surface of the growth medium in each well was inoculated with 20 μL of a suspension of fungus containing 8×10^4 cells. Following a 2 h period of drying in a sterile hood, plates were placed in a dark incubator at 25° C. for 5 d.
Fungal growth was assessed on a plate reader set to measure absorbance of 600 nm light. The percent growth inhibition observed (Obsd.) in Tests N1 and N2, as well as the percent growth inhibition expected (Exp.) from calculation using the Colby equation, are listed in Tables L and M, respectively.

Rhizoctonia solani = assay: Test D: turf brown patch, preventive spray on creeping bent grass seedlings, disease rating; conditions: 100 = 100% disease control, 0 = no disease control relative to the controls
Description: as §2
The test suspension was sprayed to the point of run-off on creeping bent grass (Agrostis sp.) seedlings. The following day the seedlings were inoculated with a bran and mycelial slurry of Rhizoctonia solani (the causal agent of turf brown patch) and incubated in a saturated atmosphere at 27° C. for 48 h, and then moved to a growth chamber at 27° C. for 3 days, after which time disease ratings were made.

`Cc1nn(C)c(Nc2ccc(Cl)cc2F)c1-c1c(F)cc(C#N)cc1F` [Compound 40, 4-[5-[(4-chloro-2-fluorophenyl)amino]-1,3-dimethyl-1H-pyrazol-4-yl]-3,5-difluorobenzonitrile] showed a melting point of 93 to 95 °C, a pest or weed control at 200 µg/mL ([1]; sprayed after inoculation, 0 = no disease control) of 63% and a pest or weed control at 200 µg/mL ([2]; Blumeria graminis, in Triticum aestivum, read-out: Test I rating (disease control), wheat powdery mildew) of 100%. For the same molecule, the pest or weed control at 200 µg/mL ([3]; read-out: Test H rating (disease control), wheat leaf rust, sprayed the day before inoculation) was 100%, the pest or weed control at 200 µg/mL (Alternaria solani; Alternaria solani, in Solanum lycopersicum, read-out: Test B rating (disease control)) was 99% and the pest or weed control at 200 µg/mL (Septoria nodorum; Parastagonospora nodorum, in Triticum aestivum, read-out: Test E rating (disease control), Septoria glume blotch, 0 = no disease control relative to the controls) was 100%. For the same molecule, the pest or weed control at 200 µg/mL (Botrytis cinerea; Botrytis cinerea, in Solanum lycopersicum, read-out: Test A rating (disease control), tomato Botrytis) was 99% and the pest or weed control at 200 µg/mL (Septoria tritici [4]; Zymoseptoria tritici) was 100%.
`Cc1nn(C)c(Nc2c(F)cc(F)cc2Cl)c1-c1ccc(C#N)cc1F` [Compound 238, 4-[5-[(2-chloro-4,6-difluorophenyl)amino]-1,3-dimethyl-1H-pyrazol-4-yl]-3-fluorobenzonitrile] gave a melting point of 177 to 179 °C.
For `Cc1nn(C)c(Nc2c(F)cccc2Cl)c1-c1ccc(F)cc1Cl` [Compound 239, 4-(2-chloro-4-fluorophenyl)-N-(2-chloro-6-fluorophenyl)-1,3-dimethyl-1H-pyrazol-5-amine], the melting point was 166 to 168 °C, the “Test G rating (% disease control)” value ([1]; spray after inoculation, rating without asterisk) was 100% and the distribution into fat [5] was “significantly diminished distribution into fat”. The “Test C rating (% disease control)” value (Phytophthora infestans; preventive spray, rating without asterisk) was 0%, the “Test B rating (% disease control)” value (Alternaria solani; tomato early blight, preventive spray, 100 = 100% disease control, rating without asterisk) was 100% and the “Test E rating (% disease control)” value (Septoria nodorum; Septoria glume blotch on wheat, preventive spray, rating without asterisk) was 99%.
With `Cc1nn(C)c(Nc2c(F)cccc2Cl)c1-c1ccc(F)cc1Br` [Compound 240, 4-(2-Bromo-4-fluorophenyl)-N-(2-chloro-6-fluorophenyl)-1,3-dimethyl-1H-pyrazol-5-amine] the distribution into fat [5] was “significantly diminished distribution into fat”.
In the case of `Cc1nn(C)c(Nc2c(F)cccc2Br)c1-c1ccc(F)cc1Cl` [Compound 241, N-(2-bromo-6-fluorophenyl)-4-(2-chloro-4-fluorophenyl)-1,3-dimethyl-1H-pyrazol-5-amine], the distribution into fat [5] is reported as “significantly diminished distribution into fat”.
In the case of `Cc1nn(C)c(Nc2c(F)cccc2Br)c1-c1ccc(F)cc1Br` [Compound 244, 4-(2-bromo-4-fluorophenyl)-N-(2-bromo-6-fluorophenyl)-1,3-dimethyl-1H-pyrazol-5-amine], the melting point is reported as 154 to 156 °C.
Work on `Cc1nn(C)c(Nc2c(F)cccc2Br)c1-c1ccc(F)cc1F` [Compound 245, N-(2-bromo-6-fluorophenyl)-4-(2,4-difluorophenyl)-1,3-dimethyl-1H-pyrazol-5-amine] yielded a melting point of 149 to 151 °C.
Work on `Cc1nn(C)c(Nc2c(F)cccc2Br)c1-c1c(F)cccc1F` [Compound 247, N-(2-bromo-6-fluorophenyl)-4-(2,6-difluorophenyl)-1,3-dimethyl-1H-pyrazol-5-amine] yielded a melting point of 127 to 129 °C.
Molecule `C#CC(C)(C)NC(=O)C(Oc1cc(C)c2ncc(Br)cc2c1)SC` (centres unmarked) [Compound A1, 2-[(3-bromo-8-methyl-6-quinolinyl)oxy]-N-(1,1-dimethyl-2-propyn-1-yl)-2-(methylthio)acetamide, reference compound] has an inhibition at 0.00032 µM (Septoria tritici [6]; Compound A1 alone 0.00032 μM, read-out: % inhibition Obsd. (Test N1)) of 3%, an inhibition at 0.0016 µM (Septoria tritici [6]; Compound A1 alone 0.0016 μM, read-out: % inhibition Obsd. (Test N1)) of 5% and an inhibition at 0.008 µM (Septoria tritici [6]; Compound A1 alone 0.008 μM, read-out: % inhibition Obsd. (Test N1)) of 14.5%. For the same molecule, the inhibition at 0.04 µM (Septoria tritici [6]; Compound A1 alone 0.04 μM, read-out: % inhibition Obsd. (Test N1)) was 97% and the inhibition at 0.2 µM (Septoria tritici [6]; Compound A1 alone 0.2 μM, read-out: % inhibition Obsd. (Test N1)) was 98%.
Molecule `CCC(Oc1ccc2ncc(Br)cc2c1)C(=O)NC(C)(C)C` (centres unmarked) [Compound A2, 2-[(3-bromo-6-quinolinyl)oxy]-N-(1,1-dimethylethyl)butanamide, reference compound] has an inhibition at 0.032 µM (Septoria tritici [6]; Compound A2 alone 0.032 μM, read-out: % inhibition Obsd. (Test N2)) of 0%, an inhibition at 0.16 µM (Septoria tritici [6]; Compound A2 alone 0.16 μM, read-out: % inhibition Obsd. (Test N2)) of 6.5% and an inhibition at 0.8 µM (Septoria tritici [6]; Compound A2 alone 0.8 μM, read-out: % inhibition Obsd. (Test N2)) of 11.5%. For the same molecule, the inhibition at 4 µM (Septoria tritici [6]; Compound A2 alone 4 μM, read-out: % inhibition Obsd. (Test N2)) was 95% and the inhibition at 20 µM (Septoria tritici [6]; Compound A2 alone 20 μM, read-out: % inhibition Obsd. (Test N2)) was 96%.
For `Cc1nn(C)c(Nc2ccccc2F)c1-c1ccc(F)cc1Cl` [compound 1], the “Test D rating (disease control)” value (Rhizoctonia solani) was 99%, the “Test I rating (disease control)” value ([2]; wheat powdery mildew) was 100% and the “Test C rating (disease control)” value (Phytophthora infestans; 0 = no disease control relative to the controls) was 0%. The “Test H rating (disease control)” value ([3]; wheat leaf rust, sprayed the day before inoculation) was 99%, the “Test B rating (disease control)” value (Alternaria solani; tomato early blight, 100 = 100% disease control, 0 = no disease control relative to the controls) was 93% and the “Test E rating (disease control)” value (Septoria nodorum; Septoria glume blotch, 0 = no disease control relative to the controls) was 0%. For the same molecule, the “Test A rating (disease control)” value (Botrytis cinerea; tomato Botrytis) was 99% and the “Test F rating (disease control)” value (Septoria tritici [4]) was 100%.
